From ChEMBL document CHEMBL1131744, “Amino-substituted thalidomide analogs: potent inhibitors of TNF-alpha production” (Bioorg Med Chem Lett, 1999)

Tests used:
[1] = molecular target: T1, Phosphodiesterase 4 (Homo sapiens) (UniProt P27815+Q08499+Q07343+Q08493); test: Inhibition of Phosphodiesterase 4 from U937 cells at 100 uM; assay type: cell-based; conditions: U-937
[2] = organism: Homo sapiens; test: Inhibition of lipopolysaccharide stimulated TNF-alpha release in human whole blood; assay type: functional
[3] = tested on: PBMC; test: Inhibition of lipopolysaccharide stimulated TNF-alpha release in human PBMC at 100 uM; assay type: functional
[4] = tested on: PBMC; test: Inhibition of lipopolysaccharide stimulated TNF-alpha release in human PBMC; assay type: functional, cell-based
[5] = molecular target: T1, Phosphodiesterase 4 (Homo sapiens); test: Inhibition of PDE4 from U937 cells at 100 uM; assay type: cell-based; conditions: U-937

SMILES	inhibition [1] [%]	IC50 [2] [nM]	inhibition at 100 µM [3] [%]	IC50 [4] [nM]	inhibition [5] [%]
Nc1cccc2c1CN(C1CCC(=O)NC1=O)C2=O (stereo unspecified) [LENALIDOMIDE]	< 50	480	74		
Nc1ccc2c(c1)CN(C1CCC(=O)NC1=O)C2=O (stereo unspecified)			15		
Nc1cccc2c1C(=O)N([C@@H]1CCC(=O)NC1=O)C2=O		73	85	93	
CC1(N2C(=O)c3cccc(N)c3C2=O)CCC(=O)NC1=O (stereo unspecified)		216	98	44	< 50
Nc1cccc2c1C(=O)N(C1CCC(=O)NC1=O)C2 (stereo unspecified)			18		
Nc1ccc2c(c1)C(=O)N(C1CCC(=O)NC1=O)C2=O (stereo unspecified)			55		
Nc1cccc2c1C(=O)N([C@H]1CCC(=O)NC1=O)C2=O		14	99	3.9	
Nc1cccc2c1C(=O)N(C1CCC(=O)NC1=O)C2=O (stereo unspecified) [POMALIDOMIDE]	< 50	25	95	13	
Nc1ccc2c(c1)C(=O)N(C1CCC(=O)NC1=O)C2 (stereo unspecified)			12		
